Measurements as given in ChEMBL document CHEMBL5442175, “EUbOPEN Chemogenomics Library - PDSP Secondary Binding” (2024).
Where a name gives a salt, the structure may show the parent alone.

Columns and labels:
[1] = target: 5-hydroxytryptamine receptor 5A (Homo sapiens, UniProt P47898); test: (§1) PDSP Secondary Binding target: HTR5A - Compounds are tested at 10 uM concentration, plate are incubated at room temperature in the dark for 90 minutes. Reaction are stopped by vacuum filtration onto 0.3% polyethyleneimine soaked filter mats using Filtermate harvester. Scintillation cocktail is then melted onto microwave-dried filters on a hot plate and the radio activity is counted in Microbia counter.
[2] = target: 5-hydroxytryptamine receptor 6 (Homo sapiens, UniProt P50406); test: as §1, with “HTR6” for “HTR5A”
D(4) dopamine receptor = target: T1, D(4) dopamine receptor (Homo sapiens, UniProt P21917); test: as §1, with “DRD4” for “HTR5A”
T1 sequence (P21917 whole entry): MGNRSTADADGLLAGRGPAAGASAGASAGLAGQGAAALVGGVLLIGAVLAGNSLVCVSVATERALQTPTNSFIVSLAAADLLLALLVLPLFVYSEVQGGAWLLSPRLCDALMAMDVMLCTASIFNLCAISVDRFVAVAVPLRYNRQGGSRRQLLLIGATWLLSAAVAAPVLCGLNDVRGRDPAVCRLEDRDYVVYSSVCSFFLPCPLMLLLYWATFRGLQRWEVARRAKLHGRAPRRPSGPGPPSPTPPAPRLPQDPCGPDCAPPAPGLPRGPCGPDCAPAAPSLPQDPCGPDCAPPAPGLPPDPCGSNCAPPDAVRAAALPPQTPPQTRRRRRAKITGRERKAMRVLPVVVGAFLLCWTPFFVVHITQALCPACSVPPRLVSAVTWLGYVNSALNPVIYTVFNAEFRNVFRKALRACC

[3] = target: 5-hydroxytryptamine receptor 1D (Homo sapiens, UniProt P28221); test: as §1, with “HTR1D” for “HTR5A”
[4] = target: Sodium-dependent noradrenaline transporter (Homo sapiens, UniProt P23975); test: as §1, with “SLC6A2” for “HTR5A”
[5] = target: Sigma intracellular receptor 2 (Homo sapiens, UniProt Q5BJF2); test: as §1, with “TMEM97” for “HTR5A”
[6] = target: T2, Muscarinic acetylcholine receptor M4 (Homo sapiens, UniProt P08173); test: as §1, with “CHRM4” for “HTR5A”
T2 sequence (P08173 whole entry): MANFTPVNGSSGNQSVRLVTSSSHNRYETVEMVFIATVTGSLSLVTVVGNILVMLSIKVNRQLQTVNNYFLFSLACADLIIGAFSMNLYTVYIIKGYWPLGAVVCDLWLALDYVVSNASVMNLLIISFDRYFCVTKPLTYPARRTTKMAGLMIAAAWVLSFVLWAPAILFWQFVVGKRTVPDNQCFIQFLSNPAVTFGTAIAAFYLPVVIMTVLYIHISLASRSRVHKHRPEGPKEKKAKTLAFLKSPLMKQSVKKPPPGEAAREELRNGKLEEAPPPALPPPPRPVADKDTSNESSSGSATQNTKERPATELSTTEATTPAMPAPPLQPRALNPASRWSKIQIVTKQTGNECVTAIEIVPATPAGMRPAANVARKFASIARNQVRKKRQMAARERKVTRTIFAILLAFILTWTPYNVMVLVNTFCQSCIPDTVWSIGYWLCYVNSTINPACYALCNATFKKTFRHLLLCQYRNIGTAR

[7] = target: T3, 5-hydroxytryptamine receptor 2C (Homo sapiens, UniProt P28335); test: as §1, with “HTR2C” for “HTR5A”
T3 sequence (P28335 whole entry): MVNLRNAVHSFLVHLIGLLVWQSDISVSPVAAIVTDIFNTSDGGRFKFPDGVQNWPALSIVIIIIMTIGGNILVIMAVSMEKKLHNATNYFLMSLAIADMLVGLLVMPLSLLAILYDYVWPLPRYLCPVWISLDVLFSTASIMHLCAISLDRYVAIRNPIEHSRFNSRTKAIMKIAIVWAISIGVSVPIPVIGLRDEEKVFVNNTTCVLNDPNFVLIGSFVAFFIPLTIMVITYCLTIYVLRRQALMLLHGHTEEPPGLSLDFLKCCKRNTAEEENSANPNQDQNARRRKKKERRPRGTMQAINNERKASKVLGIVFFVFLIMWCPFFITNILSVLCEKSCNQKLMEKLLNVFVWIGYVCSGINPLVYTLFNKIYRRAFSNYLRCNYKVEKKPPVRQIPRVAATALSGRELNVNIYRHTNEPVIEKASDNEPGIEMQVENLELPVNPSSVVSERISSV

Translocator protein = Translocator protein (Homo sapiens, UniProt P30536); test: as §1, with “TSPO” for “HTR5A”
[8] = target: Sigma non-opioid intracellular receptor 1 (Homo sapiens, UniProt Q99720); test: as §1, with “SIGMAR1” for “HTR5A”
Histamine H1 receptor = Histamine H1 receptor (Homo sapiens, UniProt P35367); test: as §1, with “HRH1” for “HTR5A”
[9] = target: 5-hydroxytryptamine receptor 7 (Homo sapiens, UniProt P34969); test: as §1, with “HTR7” for “HTR5A”
[10] = target: T4, Muscarinic acetylcholine receptor M5 (Homo sapiens, UniProt P08912); test: as §1, with “CHRM5” for “HTR5A”
T4 sequence (P08912 whole entry): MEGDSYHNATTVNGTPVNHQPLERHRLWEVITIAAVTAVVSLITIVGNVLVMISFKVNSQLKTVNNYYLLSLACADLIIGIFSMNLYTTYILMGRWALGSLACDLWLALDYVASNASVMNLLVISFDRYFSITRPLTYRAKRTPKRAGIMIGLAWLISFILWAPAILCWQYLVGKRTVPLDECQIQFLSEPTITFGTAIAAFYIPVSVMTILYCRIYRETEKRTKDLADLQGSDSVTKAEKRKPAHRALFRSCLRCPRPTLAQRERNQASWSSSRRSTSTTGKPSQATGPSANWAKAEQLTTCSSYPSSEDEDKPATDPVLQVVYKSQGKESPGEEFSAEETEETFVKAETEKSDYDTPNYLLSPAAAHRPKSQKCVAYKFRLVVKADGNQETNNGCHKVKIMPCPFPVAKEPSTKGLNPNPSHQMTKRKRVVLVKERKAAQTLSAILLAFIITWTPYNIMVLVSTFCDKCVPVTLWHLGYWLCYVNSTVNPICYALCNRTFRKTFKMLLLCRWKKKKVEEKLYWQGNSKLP

[11] = target: T5, 5-hydroxytryptamine receptor 3A (Homo sapiens, UniProt P46098); test: as §1, with “HTR3A” for “HTR5A”
T5 sequence (P46098 whole entry): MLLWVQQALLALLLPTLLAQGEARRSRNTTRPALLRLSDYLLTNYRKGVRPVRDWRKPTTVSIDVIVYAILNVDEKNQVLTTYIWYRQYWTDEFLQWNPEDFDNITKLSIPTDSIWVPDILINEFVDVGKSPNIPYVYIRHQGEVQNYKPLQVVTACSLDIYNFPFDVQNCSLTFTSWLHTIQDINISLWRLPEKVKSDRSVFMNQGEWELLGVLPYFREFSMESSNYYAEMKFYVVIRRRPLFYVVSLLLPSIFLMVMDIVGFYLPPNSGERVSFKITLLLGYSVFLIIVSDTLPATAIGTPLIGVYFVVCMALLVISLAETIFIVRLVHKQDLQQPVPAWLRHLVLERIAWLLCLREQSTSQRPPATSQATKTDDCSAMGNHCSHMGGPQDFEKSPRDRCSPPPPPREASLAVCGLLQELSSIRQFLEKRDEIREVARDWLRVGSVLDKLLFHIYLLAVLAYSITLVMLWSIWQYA

Mu-type opioid receptor = Mu-type opioid receptor (Homo sapiens, UniProt P35372); test: as §1, with “OPRM1” for “HTR5A”
[12] = target: T6, Muscarinic acetylcholine receptor M1 (Homo sapiens, UniProt P11229); test: as §1, with “CHRM1” for “HTR5A”
T6 sequence (P11229 whole entry): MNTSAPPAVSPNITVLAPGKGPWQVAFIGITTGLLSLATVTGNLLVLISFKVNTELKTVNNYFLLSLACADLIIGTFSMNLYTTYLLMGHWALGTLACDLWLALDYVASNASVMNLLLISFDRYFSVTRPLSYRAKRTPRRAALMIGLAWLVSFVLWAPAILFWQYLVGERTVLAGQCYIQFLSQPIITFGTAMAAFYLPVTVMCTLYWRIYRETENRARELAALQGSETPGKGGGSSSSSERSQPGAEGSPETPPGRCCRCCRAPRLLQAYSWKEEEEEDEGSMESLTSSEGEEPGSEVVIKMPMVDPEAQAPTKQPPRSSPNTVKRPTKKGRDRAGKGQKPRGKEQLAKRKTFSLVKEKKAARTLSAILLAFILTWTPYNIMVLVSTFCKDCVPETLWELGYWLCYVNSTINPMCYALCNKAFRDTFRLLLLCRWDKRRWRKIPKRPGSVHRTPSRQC

Sigma non-opioid intracellular receptor 1, sequence (Q99720 whole entry): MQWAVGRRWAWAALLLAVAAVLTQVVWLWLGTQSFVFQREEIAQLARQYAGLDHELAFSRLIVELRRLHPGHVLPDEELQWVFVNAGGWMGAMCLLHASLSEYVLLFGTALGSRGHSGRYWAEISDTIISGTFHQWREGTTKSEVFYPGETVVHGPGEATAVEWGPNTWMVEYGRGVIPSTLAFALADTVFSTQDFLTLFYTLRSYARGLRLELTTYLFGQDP
Sigma intracellular receptor 2, sequence (Q5BJF2 whole entry): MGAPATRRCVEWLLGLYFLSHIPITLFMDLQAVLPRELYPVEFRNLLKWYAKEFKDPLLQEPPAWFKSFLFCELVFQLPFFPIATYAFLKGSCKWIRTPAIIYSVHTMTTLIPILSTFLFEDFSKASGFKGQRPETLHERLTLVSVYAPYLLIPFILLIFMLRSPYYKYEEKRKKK
Sodium-dependent noradrenaline transporter, sequence (P23975 whole entry): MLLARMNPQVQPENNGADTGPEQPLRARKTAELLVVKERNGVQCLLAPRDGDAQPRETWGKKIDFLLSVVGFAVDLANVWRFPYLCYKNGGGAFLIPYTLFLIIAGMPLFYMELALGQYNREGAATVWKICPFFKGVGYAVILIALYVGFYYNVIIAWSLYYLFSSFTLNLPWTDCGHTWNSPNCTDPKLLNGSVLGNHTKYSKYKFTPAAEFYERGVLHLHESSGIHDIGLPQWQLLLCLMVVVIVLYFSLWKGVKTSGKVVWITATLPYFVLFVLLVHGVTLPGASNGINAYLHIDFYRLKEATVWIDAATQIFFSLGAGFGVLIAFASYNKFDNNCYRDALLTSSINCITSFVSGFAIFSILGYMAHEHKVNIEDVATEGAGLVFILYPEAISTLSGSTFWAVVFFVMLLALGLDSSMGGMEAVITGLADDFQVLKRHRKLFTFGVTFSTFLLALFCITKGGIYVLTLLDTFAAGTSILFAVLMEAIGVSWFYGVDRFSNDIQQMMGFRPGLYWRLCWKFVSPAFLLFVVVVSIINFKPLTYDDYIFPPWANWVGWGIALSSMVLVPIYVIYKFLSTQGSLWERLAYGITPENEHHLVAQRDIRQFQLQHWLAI
Histamine H1 receptor, sequence (P35367 whole entry): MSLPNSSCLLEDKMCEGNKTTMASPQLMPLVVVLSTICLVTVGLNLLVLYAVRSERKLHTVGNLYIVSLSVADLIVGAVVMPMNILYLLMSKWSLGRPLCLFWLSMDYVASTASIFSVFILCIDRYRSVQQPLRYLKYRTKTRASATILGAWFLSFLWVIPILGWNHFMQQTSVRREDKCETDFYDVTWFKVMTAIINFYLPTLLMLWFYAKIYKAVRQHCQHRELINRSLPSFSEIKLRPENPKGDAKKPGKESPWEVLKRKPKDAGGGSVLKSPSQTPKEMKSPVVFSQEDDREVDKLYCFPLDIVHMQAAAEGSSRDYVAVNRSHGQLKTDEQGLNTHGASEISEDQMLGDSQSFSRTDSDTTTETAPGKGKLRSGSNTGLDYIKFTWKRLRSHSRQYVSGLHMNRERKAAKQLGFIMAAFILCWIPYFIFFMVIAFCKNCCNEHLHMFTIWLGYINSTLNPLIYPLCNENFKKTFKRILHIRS
Translocator protein, sequence (P30536 whole entry): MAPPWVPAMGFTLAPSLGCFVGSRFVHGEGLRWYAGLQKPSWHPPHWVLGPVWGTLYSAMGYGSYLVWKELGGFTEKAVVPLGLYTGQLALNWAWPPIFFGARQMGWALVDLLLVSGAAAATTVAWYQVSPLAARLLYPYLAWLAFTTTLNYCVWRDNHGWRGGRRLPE
Mu-type opioid receptor, sequence (P35372 whole entry): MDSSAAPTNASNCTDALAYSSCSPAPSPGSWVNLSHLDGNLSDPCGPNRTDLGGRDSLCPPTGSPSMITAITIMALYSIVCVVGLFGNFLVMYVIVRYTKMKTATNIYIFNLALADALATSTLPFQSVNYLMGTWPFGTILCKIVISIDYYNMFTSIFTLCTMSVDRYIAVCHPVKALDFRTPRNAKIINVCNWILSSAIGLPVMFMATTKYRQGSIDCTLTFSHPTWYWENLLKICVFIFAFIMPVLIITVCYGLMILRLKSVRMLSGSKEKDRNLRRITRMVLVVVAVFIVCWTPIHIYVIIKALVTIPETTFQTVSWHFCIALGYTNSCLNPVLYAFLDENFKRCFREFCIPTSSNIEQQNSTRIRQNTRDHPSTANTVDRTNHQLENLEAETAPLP
5-hydroxytryptamine receptor 6, sequence (P50406 whole entry): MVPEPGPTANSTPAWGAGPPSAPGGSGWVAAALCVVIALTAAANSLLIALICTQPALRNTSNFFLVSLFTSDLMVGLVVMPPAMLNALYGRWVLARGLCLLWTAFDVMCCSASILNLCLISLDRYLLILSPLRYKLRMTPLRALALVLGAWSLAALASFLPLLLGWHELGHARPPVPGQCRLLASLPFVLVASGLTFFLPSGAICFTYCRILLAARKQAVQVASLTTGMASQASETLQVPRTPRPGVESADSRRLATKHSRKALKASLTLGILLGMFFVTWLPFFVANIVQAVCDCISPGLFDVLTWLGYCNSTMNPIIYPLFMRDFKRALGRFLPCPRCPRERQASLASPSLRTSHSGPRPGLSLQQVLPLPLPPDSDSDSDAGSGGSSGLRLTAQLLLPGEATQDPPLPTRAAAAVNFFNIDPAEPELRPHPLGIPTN
5-hydroxytryptamine receptor 1D, sequence (P28221 whole entry): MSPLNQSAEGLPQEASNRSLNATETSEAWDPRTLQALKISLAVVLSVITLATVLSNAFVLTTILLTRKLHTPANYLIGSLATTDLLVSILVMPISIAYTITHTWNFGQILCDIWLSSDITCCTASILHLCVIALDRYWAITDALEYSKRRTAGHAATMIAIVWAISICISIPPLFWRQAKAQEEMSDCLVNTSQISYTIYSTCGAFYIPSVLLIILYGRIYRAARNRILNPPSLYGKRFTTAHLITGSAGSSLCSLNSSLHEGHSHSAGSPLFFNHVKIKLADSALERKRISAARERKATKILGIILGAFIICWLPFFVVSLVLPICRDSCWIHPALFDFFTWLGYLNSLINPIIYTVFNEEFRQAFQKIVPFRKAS
5-hydroxytryptamine receptor 7, sequence (P34969 whole entry): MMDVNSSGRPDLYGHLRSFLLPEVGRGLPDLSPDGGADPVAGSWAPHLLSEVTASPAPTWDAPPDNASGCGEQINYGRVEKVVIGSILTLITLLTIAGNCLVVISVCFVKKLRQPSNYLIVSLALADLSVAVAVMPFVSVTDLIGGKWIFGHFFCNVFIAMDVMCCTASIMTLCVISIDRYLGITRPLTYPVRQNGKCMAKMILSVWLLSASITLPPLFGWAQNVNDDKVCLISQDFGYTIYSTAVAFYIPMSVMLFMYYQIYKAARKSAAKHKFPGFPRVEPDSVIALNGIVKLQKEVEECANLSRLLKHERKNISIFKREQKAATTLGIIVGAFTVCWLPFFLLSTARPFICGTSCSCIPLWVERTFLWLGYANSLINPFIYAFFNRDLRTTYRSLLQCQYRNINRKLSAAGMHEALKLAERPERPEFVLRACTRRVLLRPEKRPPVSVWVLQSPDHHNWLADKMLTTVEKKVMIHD
5-hydroxytryptamine receptor 5A, sequence (P47898 whole entry): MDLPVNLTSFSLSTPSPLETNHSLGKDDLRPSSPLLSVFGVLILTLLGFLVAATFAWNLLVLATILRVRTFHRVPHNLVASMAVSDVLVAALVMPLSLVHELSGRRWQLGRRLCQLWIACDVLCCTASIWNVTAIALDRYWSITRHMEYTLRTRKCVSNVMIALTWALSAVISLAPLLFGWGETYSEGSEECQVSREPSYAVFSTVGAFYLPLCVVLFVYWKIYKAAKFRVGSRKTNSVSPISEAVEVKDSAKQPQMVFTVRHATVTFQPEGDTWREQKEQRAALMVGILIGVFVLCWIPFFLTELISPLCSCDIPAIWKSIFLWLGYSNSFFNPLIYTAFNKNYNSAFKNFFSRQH

| Structure (SMILES) | Ki [1] | Ki [2] | Ki (D(4) dopamine receptor) | Ki [3] | Ki [4] | Ki [5] | Ki [6] | Ki [7] | Ki (Translocator protein) | Ki [8] | Ki (Histamine H1 receptor) | Ki [9] | Ki [10] | Ki [11] | Ki (Mu-type opioid receptor) | Ki [12] |
| --- | --- | --- | --- | --- | --- | --- | --- | --- | --- | --- | --- | --- | --- | --- | --- | --- |
| CC(C)[C@H](CO)Nc1nc(Nc2cccc(Cl)c2)c2ncn(C(C)C)c2n1 [PURVALANOLA] | 7540 nM | 2270 nM | 4870 nM | 3800 nM | 4400 nM | 1130 nM | > 10000 nM | 3040 nM | 1520 nM |  |  |  |  |  |  |  |
| Clc1ccc(CCCOCCCN2CCCCC2)cc1 [PITOLISANT HYDROCHLORIDE] |  |  |  |  | 1920 nM | 7.01 nM | 899 nM | 1990 nM |  | 0.904 nM | 1200 nM | 1100 nM |  |  |  |  |
| C[N+]1(C)[C@@H]2C[C@@H](OC(=O)C(O)(c3cccs3)c3cccs3)C[C@H]1[C@@H]1O[C@@H]12 [TIOTROPIUM BROMIDE] |  |  |  |  |  | 2060 nM | 0.6 nM |  | 4290 nM |  |  |  | 1.22 nM |  |  |  |
| CCc1nn2c(C)cc(C)nc2c1Cc1ccc(-c2nnc(C3CCNCC3)o2)cc1 |  |  |  |  |  | 489 nM |  |  |  | 2000 nM |  |  |  | 360 nM | 7720 nM |  |
| Cc1ccc(O)c([C@H](CCN(C(C)C)C(C)C)c2ccccc2)c1 [TOLTERODINE TARTRATE] |  |  |  |  |  | 167 nM |  |  |  | 216 nM | 127 nM |  | 3.86 nM |  |  | 8.69 nM |
